Test results taken from ChEMBL document CHEMBL1201862, “PubChem BioAssay data set” (2004).
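Dose response: 5 concentrations. Exposure: 48 h. Format: 96-well plates. Endpoint: linear interpolation; highest concentration if not reached. Abbreviation: GI50, concentration required for 50% inhibition of growth.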 Activity calls are given as the source filed them. No stated cut-off is given here; in the data, active = GI50 up to about 1.1 µM and inactive = higher.

How the values were obtained:
Assay in all cases: NCI anticancer screen, dose series, 48 h
[1] = system: MDA-MB-435
[2] = system: DLD-1
[3] = system: DMS-273
[4] = system: HOP-18
[5] = system: LXFL 529
[6] = system: M19-MEL
[7] = system: SNB-78
[8] = system: XF498
[9] = system: RXF 631

In the case of `CC1(C)CC(=O)c2c(nc3ccc4ccccc4c3c2-c2ccc(NC(=O)CCCC(=O)Nc3ccc(-c4c5c(nc6ccc7ccccc7c46)CC(C)(C)CC5=O)cc3)cc2)C1`, the GI50 [1] is reported as > 100 µM (inactive).
In the case of `Cc1nc(Nc2ccccc2)sc1C(=O)NNC(N)=O`, the GI50 [2] is reported as > 100 µM (inactive), the GI50 [3] is reported as > 100 µM (inactive) and the GI50 [4] is reported as > 100 µM (inactive). For the same molecule, the GI50 [5] was > 100 µM (inactive), the GI50 [6] was > 100 µM (inactive) and the GI50 [7] was > 100 µM (inactive). The GI50 [8] was > 100 µM (inactive).
In the case of `CC(=O)Nc1ccc(C(=O)NN2C(=O)C(Cl)C2c2cc(Br)cc(Br)c2O)cc1` (configuration not stated), the GI50 [2] is reported as > 100 µM (inactive), the GI50 [3] is reported as > 100 µM (inactive) and the GI50 [4] is reported as > 100 µM (inactive). For the same molecule, the GI50 [5] was > 100 µM (inactive), the GI50 [6] was > 100 µM (inactive) and the GI50 [8] was > 100 µM (inactive).
With `Nc1nc(N)c2ncn(Cc3ccccc3CO)c2n1` the GI50 [1] was > 100 µM (inactive).
With `O=C(O)c1c(CC(Cc2ccc3c(c2)CCC3)C(=O)O)ccc2c1CCC2` (configuration not stated) the GI50 [1] was > 100 µM (inactive).
In the case of `C=CCOC(=O)C1=C(CCC[C@@H](C)O[Si](C)(C)C(C)(C)C)N=C(N)N2[C@H](CCO)CC[C@@H]12`, the GI50 [1] is reported as 14.7 µM (inactive).
`CC(=O)Nc1ccccc1S(=O)(=O)c1c(-c2c(C)c(Cl)c(C)c(Cl)c2C)noc1C` was tested, and the GI50 [1] was > 100 µM (inactive).
`COC(=O)C1=C(C(=O)OC)SC2(S1)C(C(=O)OC)=C(C(=O)OC)Sc1c2ss/c1=N\c1ccc(Cl)cc1` was tested, and the GI50 [1] was 0.794 µM (active).
In the case of `COc1c2occc2c(N)c2ccc(=O)oc12`, the GI50 [1] is reported as > 100 µM (inactive).
For `Brc1ccc(/N=N/N2CCCCC2)cc1`, the GI50 [1] was 34.3 µM (inactive).
For `COC(c1cccc(C(O)(C(F)(F)F)C(F)(F)F)c1)(C(F)(F)F)C(F)(F)F`, the GI50 [2] was 20.3 µM (inactive), the GI50 [3] was 19.3 µM (inactive) and the GI50 [4] was 18.2 µM (inactive). The GI50 [5] was 17.5 µM (inactive), the GI50 [6] was 16.1 µM (inactive) and the GI50 [8] was 15 µM (inactive).
For `COc1ccc2c(c1)c1c(n2CCN2CCOCC2)-c2ccccc2CC1`, the GI50 [1] was 34 µM (inactive).
In the case of `N#CC(OC1OC(COC2OC(CO)C(O)C(O)C2O)C(O)C(O)C1O)c1ccccc1` (configuration not stated), the GI50 [2] is reported as > 225 µM (inactive), the GI50 [3] is reported as > 225 µM (inactive) and the GI50 [4] is reported as > 225 µM (inactive). The GI50 [6] was > 225 µM (inactive), the GI50 [7] was > 225 µM (inactive) and the GI50 [8] was > 225 µM (inactive).
`COC(=O)Cn1c(=O)oc2nc(-c3ccccc3)cc(C(F)(F)F)c21` was tested, and the GI50 [1] was 49.4 µM (inactive).
With `COc1cc(Nc2cc(Cl)cc(Cl)c2)nc(N)n1` the GI50 [1] was 24.5 µM (inactive).
In the case of `Cc1c(-c2ccc(-c3ccccc3F)cc2)nc2ccc(F)cc2c1C(=O)O` [BREQUINAR SODIUM], the GI50 [2] is reported as 0.0875 µM (active), the GI50 [3] is reported as 0.193 µM (active) and the GI50 [4] is reported as 46.1 µM (inactive). The GI50 [6] was 1.2 µM (inactive) and the GI50 [8] was 18.1 µM (inactive).
With `CC(C)C(O)(C(=O)OCN1C(=O)C2C3C=CC(C2C1=O)C1C2C(=O)N(COC(=O)C(O)(C(C)C)C(C)O)C(=O)C2C31)C(C)O` (configuration not stated) the GI50 [1] was > 100 µM (inactive).
In the case of `C=C1CC(OC)(C(O)C(=O)N[C@H]2OCO[C@H]3C2O[C@H](C[C@H](O)COC)C(C)(C)C3OC)O[C@H](C)[C@@H]1C` (some centres not stated), the GI50 [2] is reported as < 0.00773 µM (active), the GI50 [3] is reported as < 0.00773 µM (active) and the GI50 [4] is reported as < 0.00773 µM (active). For the same molecule, the GI50 [6] was < 0.00773 µM (active), the GI50 [7] was < 0.00773 µM (active) and the GI50 [8] was < 0.00773 µM (active).
In the case of `COc1ccc(N[S+]([O-])C2CCCCC2)cc1` (configuration not stated), the GI50 [1] is reported as > 100 µM (inactive).
In the case of `CC(=O)OC(C)c1cc2c(s1)C(=O)c1sccc1C2=O` (configuration not stated), the GI50 [1] is reported as 0.192 µM (active).
In the case of `Nc1nc(=O)c(/N=N/c2ccc([As](=O)(O)O)cc2)c(N)[nH]1`, the GI50 [1] is reported as > 100 µM (inactive).
In the case of `O=C(OC1C#CCSCC#C/C=C\1)c1ccc2c(c1)C(=O)c1ccccc1C2=O` (configuration not stated), the GI50 [1] is reported as > 100 µM (inactive).
With `COc1ccc(C(SCCO)(c2ccc(OC)cc2)c2ccc(OC)cc2)cc1` the GI50 [1] was 5.79 µM (inactive).
For `NCCCN(CCCCN(CCCN)C(=O)OCc1ccccc1)C(=O)OCc1ccccc1`, the GI50 [1] was > 100 µM (inactive).
`O=C1NC2(CCNCC2)Oc2ccccc21` was tested, and the GI50 [1] was > 100 µM (inactive).
In the case of `COC(=O)c1ccc(/N=N/N(C)CO)cc1`, the GI50 [2] is reported as 98.6 µM (inactive), the GI50 [3] is reported as 63.1 µM (inactive) and the GI50 [5] is reported as 43.6 µM (inactive). The GI50 [6] was > 100 µM (inactive), the GI50 [7] was 32.5 µM (inactive) and the GI50 [8] was 9.44 µM (inactive).
In the case of `O=C(CCc1nnc(S)[nH]1)Nc1cccc(C(F)(F)F)c1`, the GI50 [2] is reported as > 100 µM (inactive), the GI50 [3] is reported as > 100 µM (inactive) and the GI50 [4] is reported as > 100 µM (inactive). For the same molecule, the GI50 [5] was > 100 µM (inactive), the GI50 [7] was > 100 µM (inactive) and the GI50 [8] was > 100 µM (inactive).
In the case of `CCOC(=O)/C(C(=O)Nc1ccc(Cl)cc1)=C(/N)N1CCOCC1`, the GI50 [1] is reported as > 100 µM (inactive).
For `CC1=C(Br)C(=O)c2c(O)ccc(O)c2C1=O`, the GI50 [1] was 0.204 µM (active).
For `CC(O)/C=C/C(CCC(C)CO)C(C)C` (configuration not stated), the GI50 [2] was > 100 µM (inactive), the GI50 [3] was > 100 µM (inactive) and the GI50 [5] was > 100 µM (inactive). For the same molecule, the GI50 [6] was > 100 µM (inactive), the GI50 [9] was > 100 µM (inactive) and the GI50 [7] was > 100 µM (inactive). For the same molecule, the GI50 [8] was > 100 µM (inactive).
For `CCOC(=O)c1ccc(/N=C2\SC(=S)N(c3ccc(F)cc3)\C2=N/c2ccc(C(=O)OCC)cc2)cc1`, the GI50 [1] was 17.9 µM (inactive).
`COc1cc(OC)c(/C=N/N=C(\N)NO)c(OC)c1` was tested, and the GI50 [1] was 49.8 µM (inactive).
`COC1OC2COC(c3ccccc3)OC2C(O)C1OC(=S)c1ccccc1` (configuration not stated) was tested, and the GI50 [1] was 1.31 µM (inactive).
With `O=C1C(Cl)N(c2cccc([N+](=O)[O-])c2)C1c1c[nH]c2ccccc12` (configuration not stated) the GI50 [5] was 6.25 µM (inactive) and the GI50 [6] was 18.1 µM (inactive).
`CC1CC2=C(C1)C(C1(C)C(=O)CC3C(C1=O)C3(C)C)C(C)C2=O` (configuration not stated) was tested, and the GI50 [1] was > 100 µM (inactive).
